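Growth conditions: 96-well plates. Treatment: test compound, 48 hours, 5 concentrations. Analysis: linear interpolation between bracketing concentrations; unreached endpoints set to highest concentration. TGI denotes the concentration required for complete inhibition of growth.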

The values below come from PubChem BioAssay (NCI).

Some test systems named below: OVCAR-3 ovarian; M14 melanoma; SK-OV-3 ovarian; MALME-3M melanoma; SR leukemia; SN12C renal; HT29 colon; ACHN renal; UACC-257 melanoma; MOLT-4 leukemia; K-562 leukemia.
Common to all, as to assay: NCI anticancer screen, dose series, 48 h

As to `COc1ccc(C(OCC2OC(n3cc(C)c(=O)[nH]c3=O)CC2n2cc(Cn3cc(I)c(=O)[nH]c3=O)nn2)(c2ccccc2)c2ccccc2)cc1` (stereo not drawn), the TGI in the test on OVCAR-3 ovarian, in the test on M14 melanoma, with SK-OV-3 ovarian, in the test on MALME-3M melanoma, in the test on SR leukemia and with SN12C renal was greater than 100 µM throughout. In addition, the TGI in the test on HT29 colon, with ACHN renal, in the test on UACC-257 melanoma and in the test with MOLT-4 leukemia was greater than 100 µM in each case.
Regarding `Cc1ccc(SCC(CSCCO)OCn2cnc3c2NC(N)=NC32OCCO2)cc1` (stereo not drawn), the TGI in the test on OVCAR-3 ovarian, in the test with M14 melanoma, with K-562 leukemia, with SK-OV-3 ovarian, in the test with MALME-3M melanoma and with SR leukemia was greater than 100 µM throughout. Further, the TGI with HT29 colon, in the test with ACHN renal, in the test on UACC-257 melanoma and in the test with MOLT-4 leukemia was greater than 100 µM throughout.
As to `Cc1cc(O)c2c(=O)c3ccccc3[nH]c2c1`, the TGI in the test with OVCAR-3 ovarian is greater than 100 µM; in the test with M14 melanoma it was 52.6 µM; in the test on SK-OV-3 ovarian it was greater than 100 µM; with MALME-3M melanoma, greater than 100 µM; with SR leukemia, 52.6 µM; with SN12C renal it was greater than 100 µM. Further, the TGI with HT29 colon is 38 µM; in the test on ACHN renal it was greater than 100 µM; with UACC-257 melanoma it was 54.2 µM; in the test with MOLT-4 leukemia it was greater than 100 µM.
Consider `O=C(CCC(=O)c1ccc(Cl)cc1)NO`, for which the TGI in the test with OVCAR-3 ovarian, in the test with M14 melanoma, in the test with K-562 leukemia, with SK-OV-3 ovarian, in the test with SR leukemia and in the test on SN12C renal was greater than 100 µM throughout. Also, the TGI in the test on HT29 colon, with ACHN renal, in the test with UACC-257 melanoma and in the test with MOLT-4 leukemia was greater than 100 µM each time.
Turning to `CC1(C)N=C(/C(Cl)=[N+](/[O-])C(=O)c2ccc(F)cc2)C(C)(C)N1O`, the TGI with OVCAR-3 ovarian worked out at 31.2 µM; in the test with M14 melanoma, 30.3 µM; with K-562 leukemia, 17.3 µM; with SK-OV-3 ovarian it was 47 µM; in the test on MALME-3M melanoma, 30.8 µM; in the test with SR leukemia, 27.8 µM. The TGI in the test on SN12C renal turned out to be 29.2 µM; in the test on HT29 colon it was 41 µM; in the test with ACHN renal, 36.5 µM; in the test on UACC-257 melanoma it was 32.3 µM.
As for `CCOC(=O)N1CCC2(CC1)C[C@](C)(C(C)=O)C(C)O2` (stereo partly drawn), the TGI in the test with OVCAR-3 ovarian, in the test with M14 melanoma, in the test on K-562 leukemia, in the test on SK-OV-3 ovarian, with MALME-3M melanoma and with SR leukemia was greater than 100 µM in each case. Besides, the TGI with HT29 colon, in the test with ACHN renal, with UACC-257 melanoma and in the test with MOLT-4 leukemia was greater than 100 µM throughout.
Regarding `COc1ccc(N2C(=O)C3c4[nH]c5ccccc5c4C4CCC(C(C)(C)C)CC4C3C2=O)c(C)c1` (stereo not drawn), the TGI in the test with OVCAR-3 ovarian, with M14 melanoma, in the test with K-562 leukemia, in the test on SK-OV-3 ovarian, in the test on SR leukemia and with SN12C renal was greater than 100 µM each time. Besides, the TGI with HT29 colon, in the test on ACHN renal, in the test with UACC-257 melanoma and with MOLT-4 leukemia was greater than 100 µM throughout.
As to `CCC[C@@H](O)C[C@@H]1CCC[C@H](C[C@@H](O)CC)N1C`, the TGI in the test with OVCAR-3 ovarian, in the test with M14 melanoma, with K-562 leukemia, in the test with SK-OV-3 ovarian, in the test on SR leukemia and with SN12C renal was greater than 100 µM in each case. The TGI in the test on HT29 colon, with ACHN renal, in the test with UACC-257 melanoma and with MOLT-4 leukemia was greater than 100 µM in each case.
As to `c1ccc(N=C2SC3=Nc4cccc5cccc(c45)N3C2=Nc2ccccc2)cc1`, the TGI with OVCAR-3 ovarian, in the test on M14 melanoma, with K-562 leukemia, in the test with SK-OV-3 ovarian, in the test on MALME-3M melanoma and in the test on SR leukemia was greater than 100 µM throughout. Also, the TGI with SN12C renal, in the test on HT29 colon and in the test on MOLT-4 leukemia was greater than 100 µM in each case.
Turning to `Cc1ccccc1-n1c(=O)c2ncn(CCCl)c2n(-c2ccccc2C)c1=S`, the TGI in the test on OVCAR-3 ovarian, in the test with M14 melanoma, in the test with K-562 leukemia, in the test with SK-OV-3 ovarian, in the test with SR leukemia and in the test with SN12C renal was greater than 100 µM each time. Moreover, the TGI in the test on HT29 colon, in the test with ACHN renal, with UACC-257 melanoma and in the test with MOLT-4 leukemia was greater than 100 µM in each case.
For `COC(=O)[C@H]1CO[C@@H](C(C)(C)C)N1C(=O)N1C=CC(=O)C[C@@H]1C`, the TGI in the test with OVCAR-3 ovarian, in the test with K-562 leukemia, in the test with SK-OV-3 ovarian, in the test with MALME-3M melanoma, with SR leukemia and in the test with SN12C renal was greater than 100 µM throughout. The TGI in the test on HT29 colon, with ACHN renal and with UACC-257 melanoma was greater than 100 µM throughout.
In the case of `N.N.N.N.O=[N+]([O-])[O-].[Co+3].[N-]=[N+]=[N-].[N-]=[N+]=[N-]`, the TGI in the test on OVCAR-3 ovarian, in the test with M14 melanoma, in the test on K-562 leukemia, with SK-OV-3 ovarian, with MALME-3M melanoma and in the test on SN12C renal was greater than 100 µM throughout. The TGI in the test on HT29 colon, with ACHN renal, in the test on UACC-257 melanoma and in the test on MOLT-4 leukemia was greater than 100 µM each time.
With `N#CN=C(N(Cc1ccccc1)Cc1ccccc1)N(Cc1ccccc1)Cc1ccccc1`, the TGI in the test with OVCAR-3 ovarian was 31.7 µM; in the test with M14 melanoma, greater than 100 µM; in the test on K-562 leukemia, greater than 100 µM; in the test with SK-OV-3 ovarian, greater than 100 µM; in the test with MALME-3M melanoma, greater than 100 µM; in the test with SN12C renal, greater than 100 µM. The TGI with HT29 colon, in the test with ACHN renal, in the test on UACC-257 melanoma and in the test with MOLT-4 leukemia was greater than 100 µM each time.
